Calls of active or inactive are those of the source. The rule behind the calls is not given here.

One experiment has as its target T1, Prostaglandin G/H synthase 2 (Mus musculus, UniProt Q05769).
T1 sequence (Q05769 whole entry): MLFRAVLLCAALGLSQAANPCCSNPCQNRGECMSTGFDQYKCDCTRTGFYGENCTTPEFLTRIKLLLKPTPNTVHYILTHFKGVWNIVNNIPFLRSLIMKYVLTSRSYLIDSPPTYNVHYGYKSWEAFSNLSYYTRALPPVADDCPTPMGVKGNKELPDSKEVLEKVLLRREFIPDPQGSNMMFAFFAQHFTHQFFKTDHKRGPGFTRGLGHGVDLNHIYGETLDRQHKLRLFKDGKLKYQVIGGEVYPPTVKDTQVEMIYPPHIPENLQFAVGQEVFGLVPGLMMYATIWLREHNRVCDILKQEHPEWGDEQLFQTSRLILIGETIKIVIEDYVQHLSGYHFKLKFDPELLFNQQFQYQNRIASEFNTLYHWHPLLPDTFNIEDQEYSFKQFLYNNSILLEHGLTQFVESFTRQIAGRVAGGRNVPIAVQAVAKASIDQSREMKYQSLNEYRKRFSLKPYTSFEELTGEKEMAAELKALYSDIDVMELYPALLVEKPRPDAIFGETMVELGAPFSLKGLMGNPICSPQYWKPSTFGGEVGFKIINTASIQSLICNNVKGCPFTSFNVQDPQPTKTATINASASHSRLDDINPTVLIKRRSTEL
The experiment in a line: Inhibition of COX-2 mediated PGE2 production in LPS-induced mouse RAW264.7 cells. Format: cell-based.
The molecule `CS(=O)(=O)c1ccc(/C=C/c2ccsc2)cc1` returned a half-inhibitory concentration (IC50) of 520 nM.

Take `CS(=O)(=O)c1ccc(/C=C/c2ccoc2)cc1`: the IC50 is greater than 50000 nM.

Take `NS(=O)(=O)c1ccc(/C=C/c2ccco2)cc1`: inhibition was half-maximal at 18300 nM (IC50). This lies in the double-digit micromolar range.

In the case of `CS(=O)(=O)c1ccc(/C=C/c2ccco2)cc1`, the IC50 amounted to 1180 nM.

Molecule `NS(=O)(=O)c1ccc(/C=C/c2cccs2)cc1` displayed a 50% inhibitory concentration (IC50) of 13 nM. This IC50 lies about 91-fold lower than the previous one.

As for `CS(=O)(=O)c1ccc(/C=C/c2cccs2)cc1`, 380 nM corresponded to half-maximal inhibition (IC50). This IC50 is about 29-fold higher than that of the molecule before.

Regarding `NS(=O)(=O)c1ccc(/C=C/c2ccoc2)cc1`, the IC50 is greater than 50000 nM.

For `NS(=O)(=O)c1ccc(/C=C/c2ccsc2)cc1`, the half-maximal inhibitory concentration (IC50) came out at 440 nM.

The subject of a further experiment is RAW264.7. The experiment in a line: Inhibition of COX-2 gene expression in LPS-stimulated mouse RAW264.7 cells after 24 hrs by RT-PCR analysis. Format: functional, cell-based.
With `NS(=O)(=O)c1ccc(/C=C/c2cccs2)cc1`, the inhibition entry was “Active”.

The values above are taken from ChEMBL document CHEMBL1287689, “Sulfonamide derivatives of styrylheterocycles as a potent inhibitor of COX-2-mediated prostaglandin E2 production” (Bioorg Med Chem Lett, 2010).
